≈ marks a conversion by molar mass, not a printed value.
System: Staphylococcus aureus (ATCC 29213)
Test: Antimicrobial activity against S. aureus (growth inhibition, OD 620 nm)
Format: cell-based
Conditions: for MIC: minimum concentration to inhibit about 100 percent bacterial growth; for IC50: individual permethylated peptides
Procedure: The two types of libraries of positional libraries of Example 5 were also scanned against Staphylococcus aureus a Gram-positive bacterium. Concentrations of those 5× permethylated peptide mixtures that inhibited cellular growth by 50 percent (IC50) values were determined.
The permethylated amino acid and peptides were screened against S. aureus, as described before and IC50 and MIC (minimum inhibitory concentration; minimum concentration needed to inhibit about 100 percent bacterial growth) values were determined.
Staphylococcus aureus (ATCC 29213) were grown overnight (about 18 hours) at 37° C. in Mueller-Hinton (MH) broth. This culture was reinoculated and incubated at 37° C. to reach the exponential phase of bacterial growth; i.e., a final bacterial suspension containing about 10^5 to 5×10^5 colony-forming units (CFU)/ml. The concentration of cells was established by plating 100 μl of different dilutions of the culture solution (e.g., 10^-2, 10^-3 and 10^-4) onto solid agar plates. Following an overnight (about 18 hours) incubation at 37° C., the CFU thus formed were counted on each agar plate.
96-Well tissue culture plates were utilized, with eight wells per plate containing only medium as control blanks, whereas eight other wells contained medium plus cells as a positive growth control. These controls were used to detect possible medium contamination and to provide a measure of uninhibited growth of the microorganisms.
For determination of IC50 values (concentrations necessary to inhibit 50 percent growth of bacteria), peralkylated oligopeptide sets were added to the bacterial suspension at concentrations noted before. The plates were incubated overnight (about 18 hours) at 37° C., and the optical density (OD) determined at 620 nm after different times of incubation. IC50 Values were then determined from the OD data.

[1] = Staphylococcus aureus, ATCC29213, Assay 1
[2] = Staphylococcus aureus, ATCC29213, Assay 2

Molecule	MIC (Assay 2) [µM]	IC50 [1] [nM]	IC50 [2] [nM]	MIC [1] [µM]	MIC (Assay 1) [µM]	IC50 (Assay 1) [nM]	IC50 (Assay 2) [nM]
CC[C@H]1OC(=O)[C@H](C)[C@@H](O[C@H]2C[C@@](C)(OC)[C@@H](O)[C@H](C)O2)[C@H](C)[C@@H](O[C@@H]2O[C@H](C)C[C@H](N(C)C)[C@H]2O)[C@](C)(O)C[C@@H](C)C(=O)[C@H](C)[C@@H](O)[C@]1(C)O [Erythromycin, erythromycin]	0.5 (≈ 0.367 µg/mL)	184	134	0.5 (≈ 0.367 µg/mL)	–	–	–
Cc1onc(-c2ccccc2)c1C(=O)N[C@@H]1C(=O)N2[C@@H]1SC(C)(C)[C@@H]2C(=O)O [Oxacillin, oxacillin]	0.125 (≈ 0.0502 µg/mL)	42	370	0.125 (≈ 0.0502 µg/mL)	–	–	–
CNC(=O)[C@H](Cc1ccccc1)[N+](C)(C)C [PerA--F, permethylated Phe N-methylamide]	> 500	–	–	–	> 500	–	–
Ac-FFFFFF-NH2 [N--Ac--hexaPhe, N-acetyl hexaPhe amide]	> 500	–	–	–	> 500	> 500000	> 500000
